SMILES strings stand for the structures. The source made the active and inactive calls. The rule behind the calls is not given here.

One series has as its system Mus musculus. The series can be described thus: Analgesic activity in sc dosed white mouse by hot plate method. Type of series: functional.
Series [1] deals with Rhesus monkey. Briefly: Precipitation of abstinence syndrome of long duration in morphine-dependent monkey assessed as irritability. Type of series: ADME, organism-based, Macaca mulatta. As to conditions: in vivo.
Series [2] has as its system Rhesus monkey. Briefly: Precipitation of abstinence syndrome of long duration in morphine-dependent monkey assessed as hyperexcitability. The class given is ADME, organism-based, Macaca mulatta. The following applies: in vivo.
Series [3] concerns Rhesus monkey. The series can be described thus: Precipitation of abstinence syndrome of long duration in morphine-dependent monkey assessed as movement within cage. As to conditions: in vivo. The class given is ADME, organism-based, Macaca mulatta.
Series [4] concerns Rhesus monkey. The series can be described thus: Precipitation of abstinence syndrome of long duration in morphine-dependent monkey assessed as abdominal cramps. The following applies: in vivo. The class given is ADME, organism-based, Macaca mulatta, Abdomen.
In series [5] the test system is Rhesus monkey. The series can be described thus: Narcotic antagonist activity in morphine-dependent monkey. The class given is functional, organism-based. As to conditions: Macaca mulatta.

One may read the ED50 as the midpoint of the dose-response relation. Turning to `CCOC(=O)C1(c2ccccc2)CCN(C)CC1` [MEPERIDINE], in the series on Mus musculus, the 50% effect level (ED50) was put at a dose of 4.5 mg/kg.
Compound `CN1CC[C@]23c4c5ccc(O)c4O[C@H]2[C@@H](O)C=C[C@H]3[C@H]1C5` [MORPHINE] came in with an ED50 in the series with Mus musculus of 1.2 mg/kg.
In the case of `C[C@H]1C2Cc3ccc(O)cc3[C@@H]1CCN2C`, the Activity result is recorded as “Toxic” in the series on Rhesus monkey [1], “Non-toxic” in the series on Rhesus monkey [2], “Non-toxic” with Rhesus monkey [3] and “Toxic” in the series with Rhesus monkey [4]. In the series on Mus musculus, this compound displayed an ED50 of 4.3 mg/kg.
With `CN1CC[C@@H]2CC1Cc1ccc(O)cc12`, in the series on Rhesus monkey [5], the result was Active.
Regarding `C[C@@H]1C2Cc3ccc(O)cc3[C@@H]1CCN2C`, the Activity entry in the series with Rhesus monkey [1] was “Toxic”; in the series on Rhesus monkey [2], “Non-toxic”; in the series on Rhesus monkey [3], “Non-toxic”; with Rhesus monkey [4], “Toxic”. This compound also yielded a median effective dose (ED50) in the series on Mus musculus of 1.1 mg/kg. Moreover, in the series on Rhesus monkey [5], the outcome was Active.

For the origin of these results see ChEMBL document CHEMBL3272348, “Synthesis and pharmacology of 2,9alpha-dimethyl-2'-hydroxy-6,7-benzomorphan” (J Med Chem, 1976).
